According to patent US4859668A, “Method of inhibiting the growth of melanin-pigmented cells” (North Carolina State University, priority 1988, dated 1989):
Read-outs that look alike come from different tables or passages of the source.

How the values were obtained:
[1] = tested on: melanin-pigmented cells; assay: In vitro selective inhibition of melanin-pigmented cells, effective dosage/time regimens; assay type: cell-based
[2] = tested on: L929 fibroblast; assay: Effects of Various Cyclic Amines on Growth of Pigmented Melanoma Cells (Table III), L929; assay type: cell-based, mouse; conditions: for inhibition at 13800 µM: Mus musculus, read-out: Percent Inhibition, L929 fibroblast
Description: (§1) Pigmented S91 melanoma and unpigmented L929 fibroblast cells were treated with various cyclic amines at a concentration of 13.8 mM as described in Example 1 above.

[3] = tested on: S91 melanoma; assay: Effects of Various Cyclic Amines on Growth of Pigmented Melanoma Cells (Table III), S91; assay type: cell-based, mouse; conditions: for inhibition at 13800 µM: Mus musculus, read-out: Percent Inhibition, S91 melanoma
Description: as §1

[4] = tested on: NP; assay: cells; conditions: Mus musculus, 1.5 h, read-out: Effect on Growth Rate (inhibition), NP
Description: (§3) These cell cultures include low passage HFH (HFH-LP), a pigmented line derived from the B-16 mouse melanoma, and NP, an amelanotic clone of HFH-LP. […] These cells were maintained as monolayers in Corning plastic flasks in Minimum Essential Medium (Eagle) with Earle's salts supplemented with 10% fetal bovine serum, 100 units of penicillin, 100 mg of streptomycin and 5 mg of amphotericin B per ml in 5% CO2 humidified air at 37° C.
(§4) Prior to dose-response studies, single cell suspensions were prepared in medium following trypsinization and inoculated into Falcon Multiwell plates (2 cm^2 wells) at 3.5×10^4 cells per 0.5 ml of medium. Cultures were maintained for 24 hours before exposure.
(§5) This stock solution was used to prepare test concentrations of the drug in culture medium. […] Cells were exposed to each of these concentrations by adding 0.5 ml of each of the solutions to triplicate test wells and incubating the cells under exposure at 37° C. for 1 hour. […] Cells were harvested after 48 hours and counted with a hemacytometer.

[5] = tested on: S91 (Cloudman S91 mouse melanoma); assay: Effect of Cyclic Amines on Survival of Pigmented Melanoma (Table II), S91; conditions: 24 h, read-out: percentage dead, S91
Description: (§6) These cells were maintained as monolayers in Corning plastic flasks in Minimum Essential Medium (Eagle) with Earle's salts supplemented with 10% fetal bovine serum, 100 units of penicillin, 100 mg of streptomycin and 5 mg of amphotericin B per ml in 5% CO2 humidified air at 37° C.
as §4, §5

[6] = tested on: HFH-LP; assay: Effect of Cyclic Amines on Growth Rate of Pigmented Melanoma (Table I), HFH-LP; assay type: cell-based, mouse
Description: as §3, §4, §5

[7] = tested on: HFH-LP; assay: Effect of Cyclic Amines on Survival of Pigmented Melanoma (Table II), HFH-LP; conditions: Mus musculus, 24 h, read-out: percentage dead, HFH-LP
Description: as §6, §4, §5

[8] = in vitro; conditions: mouse, l929 cells
Description: as §6, §4, §5

[9] = tested on: HFH-LP and HFH-HP; assay: Pigmentation and growth of cells exposed to theophylline, HFH-LP and HFH-HP; assay type: cell-based, mouse; conditions: theophylline exposure
Description: (§7) Single cell suspensions were prepared as described above. Twenty-four hours after seeding, the cells were exposed to either (a) culture medium alone, or (b) culture medium containing 0.5 mM theophylline.

[10] = tested on: BHK; assay: cells; conditions: Mesocricetus auratus, read-out: Growth inhibition, Theo. Alone vs. control
Description: (§8) These cell cultures include low passage HFH (HFH-LP), a pigmented line derived from the B-16 mouse melanoma, and NP, an amelanotic clone of HFH-LP. High passage HFH (HFH-HP) was derived from HFH-LP after 30 passages in vitro. […] These cell cultures further include Cloudman S91 mouse melanoma, RPMI 1846 (a Syrian hamster melanoma), baby hamster kidney (BHK) and Chinese hamster ovary (CHO). These cells were maintained as monolayers in Corning plastic flasks in Minimum Essential Medium (Eagle) with Earle's salts supplemented with 10% fetal bovine serum, 100 units of penicillin, 100 mg of streptomycin and 5 mg of amphotericin B per ml in 5% CO2 humidified air at 37° C.
as §7
(§9) The values given are the mean from 6 replicates.

[11] = tested on: RPMI-1641; assay: cells; conditions: read-out: Growth inhibition, Theo. Alone vs. control
Description: as §8, §7, §9

[12] = tested on: RPMI 1946 cells; assay: Pigmentation and growth of cells exposed to theophylline, RPMI 1946; assay type: cell-based, Syrian hamster; conditions: theophylline exposure
Description: as §7

[13] = tested on: HFH-LP; assay: cells; conditions: Mus musculus, read-out: Growth inhibition, Theo. Alone vs. control
Description: as §8, §7, §9

[14] = tested on: HFH-HP; assay: cells; conditions: Mus musculus, read-out: Growth inhibition, Theo. Alone vs. control
Description: as §8, §7, §9

[15] = tested on: NP; assay: cells; conditions: Mus musculus, read-out: Growth inhibition, Theo. Alone vs. control
Description: as §8, §7, §9

[16] = tested on: L929; assay: cells; conditions: Mus musculus, L929, read-out: Growth inhibition, Theo. Alone vs. control
[17] = tested on: Unpigmented NP, CHO and mouse fibroblast L929 cells; assay: Enhancement of toxicity by theophylline pretreatment, unpigmented cells; assay type: cell-based, mouse; Chinese hamster
Description: Twenty-four hours after seeding, the cells were exposed to either (a) culture medium alone, or (b) culture medium containing 0.5 mM theophylline.

[18] = tested on: RPMI-1641; conditions: lightly pigmented RPMI 1641
Description: as §8, §7, §9

[19] = tested on: L929 fibroblast; assay: Effect of High Dose Exposure to Piperidino 1,2-Propanediol (Table V), L929; assay type: cell-based, mouse; conditions: 30 min. exposure
Excerpt: (§2) Pigmented S91 melanoma and nonpigmented L929 fibroblast cells were exposed to high doses of piperidino 1,2-propanediol.

[20] = tested on: S91 melanoma; assay: Effect of High Dose Exposure to Piperidino 1,2-Propanediol (Table V), S91; assay type: cell-based, mouse; conditions: 30 min. exposure
Excerpt: as §2

[21] = L929, 1 Hour Exposure to 13.8 mM
[22] = S91, 1 Hour Exposure to 13.8 mM

In the case of `CN1CCN(C)CC1` [1,4-dimethylpiperazine], the “in vitro effectiveness of dosage/time regimen” value ([1]; 13.8 mM for 1 hour) is reported as “effective in vitro for inhibiting the growth of melanin-pigmented cells with little or no effect upon unpigmented cells”, the inhibition at 13800 µM [2, 21] is reported as 0% and the inhibition at 13800 µM [3, 22] is reported as 99%.
In the case of `CN1CCNCC1` [1-methylpiperazine], the “in vitro effectiveness of dosage/time regimen” value ([1]; 13.8 mM for 1 hour) is reported as “effective in vitro for inhibiting the growth of melanin-pigmented cells with little or no effect upon unpigmented cells”, the inhibition at 13800 µM [2, 21] is reported as 0% and the inhibition at 13800 µM [3, 22] is reported as 99%.
With `CN1CCCCC1` [1-methylpiperidine] the “in vitro effectiveness of dosage/time regimen” value ([1]; 13.8 mM for 1 hour) was “effective in vitro for inhibiting the growth of melanin-pigmented cells with little or no effect upon unpigmented cells”, the inhibition at 13800 µM [2, 21] was 4% and the inhibition at 13800 µM [3, 22] was 99%.
In the case of `CC1CNC(C)CN1` (stereo not shown) [2,5-dimethylpiperazine], the “in vitro effectiveness of dosage/time regimen” value ([1]; 13.8 mM for 1 hour) is reported as “effective in vitro for inhibiting the growth of melanin-pigmented cells with little or no effect upon unpigmented cells”, the inhibition at 13800 µM [2, 21] is reported as 0% and the inhibition at 13800 µM [3, 22] is reported as 97%.
In the case of `c1cc(N2CCCCC2)ccn1` [4-piperidinopyridine], the “in vitro effectiveness of dosage/time regimen” value ([1]; 13.8 mM for 1 hour) is reported as “effective in vitro for inhibiting the growth of melanin-pigmented cells with little or no effect upon unpigmented cells”, the “in vitro effectiveness of dosage/time regimen” value ([1]; 35 mM for 30 minutes) is reported as “effective in vitro for inhibiting the growth of melanin-pigmented cells with little or no effect upon unpigmented cells” and the inhibition at 13800 µM [2, 21] is reported as 14%. It also gave an inhibition at 13800 µM [3, 22] of 99%.
In the case of `CCN1CCOCC1` [N--ethylmorpholine, reference compound], the inhibition at 13800 µM [2, 21] is reported as 0% and the inhibition at 13800 µM [3, 22] is reported as 0%.
`CN1CCOCC1` [N--methylmorpholine, reference compound] gave an inhibition at 13800 µM [2, 21] of 0% and an inhibition at 13800 µM [3, 22] of 0%.
Compound `c1ccncc1` [Pyridine, reference compound] has an inhibition at 13800 µM ([2]; L929, 1 h) of 0% and an inhibition at 13800 µM ([3]; S91, 1 h) of 0%.
In the case of `C1CNCCN1` [piperazine], the “in vitro effectiveness of dosage/time regimen” value ([1]; 13.8 mM for 1 hour) is reported as “effective in vitro for inhibiting the growth of melanin-pigmented cells with little or no effect upon unpigmented cells”, the inhibition at 13800 µM [4] is reported as 0% and the cytotoxicity at 13800 µM [5] is reported as 46 ± 5%. The inhibition at 13800 µM [2, 21] was 0%, the inhibition at 13800 µM [3, 22] was 70% and the inhibition at 13800 µM ([6]; Mus musculus, 13.8 mM for 1.5 hr, mean ± S.E., 6 replicates, read-out: Effect on Growth Rate (inhibition), HFH-LP) was 24 ± 9%. For the same compound, the “inhibition of pigmented cell line HFH-LP (in words)” value ([6]; not as effective as morpholine at the dosage tested) was “selectively inhibitory to the pigmented cell line HFH-LP, although not as effective as morpholine”, the cytotoxicity at 13800 µM [7] was -44 ± 4% and the cytotoxicity at 24 h, 13800 µM [8] was -101%.
In the case of `Cn1c(=O)c2[nH]cnc2n(C)c1=O` [theophylline, reference compound], the “growth rate of the cells” value [9] is reported as “decreased”, the “pigmentation of the treated cells” value [9] is reported as “visible increase in pigmentation” and the inhibition at 500 µM [10] is reported as 20%. The inhibition at 500 µM [11] was 35%, the growth rate [12] was “similarly affected” and the pigmentation [12] was “no visible change in pigmentation”. It also gave an inhibition at 500 µM [13] of 35%, an inhibition at 500 µM [14] of 40% and an inhibition at 500 µM [15] of 11%. For the same compound, the inhibition at 500 µM [16] was -87%, the “effect of theophylline pretreatment on unpigmented cells” value [17] was “remained unaffected” and the sensitization to morpholine [18] was “sensitized the lightly pigmented RPMI 1641 cell line to morpholine”.
With “piperidino 1,2-propanediol [piperidino1,2-propanediol]” the “% inhibition, L929 fibroblast” value ([19]; 13.8 mM) was 0%, the “% inhibition, L929 fibroblast” value ([19]; 34.5 mM) was 7% and the “% inhibition, L929 fibroblast” value ([19]; 69 mM) was 10%. For the same compound, the “% inhibition, L929 fibroblast” value ([19]; 138 mM) was 19%, the “in vitro effectiveness of dosage/time regimen” value ([1]; 13.8 mM for 1 hour) was “effective in vitro for inhibiting the growth of melanin-pigmented cells with little or no effect upon unpigmented cells” and the “in vitro effectiveness of dosage/time regimen” value ([1]; 35 mM for 30 minutes) was “effective in vitro for inhibiting the growth of melanin-pigmented cells with little or no effect upon unpigmented cells”. For the same compound, the “% inhibition, S91 melanoma” value ([20]; 13.8 mM) was 16%, the “% inhibition, S91 melanoma” value ([20]; 34.5 mM) was 44% and the “% inhibition, S91 melanoma” value ([20]; 69 mM) was 81%. The “% inhibition, S91 melanoma” value ([20]; 138 mM) was 91%, the “Percent Inhibition, L929 fibroblast” value ([2]; 1 Hour Exposure to 13.8 mM) was 1% and the “Percent Inhibition, S91 melanoma” value ([3]; 1 Hour Exposure to 13.8 mM) was 46%.
